In patent US20150231209A1, “STIMULATION OF OVARIAN FOLLICLE DEVELOPMENT AND OOCYTE MATURATION” (THE BOARD OF TRUSTEES OF THE LELAND STANFORD JUNIOR …, priority 2012, published 2015):

Columns and labels:
[1] = test system: PTP; conditions: read-out: IC50, PTP inhibitor; cited from earlier work
[2] = test system: ovarian grafts; assay: Ovarian grafting under kidney capsule of FSH-treated hosts: graft weights and follicle counting; format: in vivo, mice; conditions: ovaries treated 30 min. with different concentrations, grafted 5 days, hosts treated daily with FSH
Description: FIG. 3. Additive effects of Hippo signaling disruption and Akt stimulation promoted secondary follicle growth. A) Secondary follicles are responsive to IVA treatment. Secondary follicles (115 um in diameter) were isolated from mice at day 10 of age and cultured in vitro with the standard IVA protocol (first day with bPV(hopic) at 3 mM and 740YP at 15 ug/ml, followed by one more day with 740YP alone), followed by treatment with daily FSH (100 ng/ml) for two more days (IVA+FSH). The control groups were either treatment with media alone for four days or treated with the IVA reagent for two days followed by media alone (IVA alone). B) Ovarian fragmentation and IVA treatment led to additive effects on ovarian weight gain and secondary follicle growth. Paired ovaries from mice at day 10 of age were fragmented into three pieces. Fragments from one side were treated with the IVA protocol (bpV(hopic) at 30 uM and 740YP at 150 ng/ml for one day, followed by one more day with 740YP only) whereas fragments from the contralateral side were incubated in media alone. Ovarian fragments were then allo-transplanted into kidney capsules of adult ovariectomized mice with hosts injected with FSH (daily at 1 IU/animal). Five 5 days later, ovarian grafts were retrieved, fixed and weighted. Left panel: graft weights; right panel: Follicle dynamics of grafted ovarian fragments. Percentages of follicles at different stages were determined based on serial sections of grafts. C, Follicle dynamics before and after grafting of intact and fragmented murine ovaries with or without treatment with Akt stimulators. Left: total follicle numbers, Right: follicle dynamics. n=4. Same letter symbols indicate significant differences (p<0.05). D-F. Vitrified human cortical strips were thawed and fragmented into cubes before treatment with Akt stimulators for 2 days followed by grafting into immune-deficient mice for 4 weeks. D. Cortical strips before grafting. Arrow: a secondary follicle, arrowheads: primordial/primary follicles. Scale bar, 100 μm. E. A kidney graft in situ (left) and after isolation (right), showing an antral follicle. F. Histology of two large antral follicles with the side view of one showing an oocyte at the germinal vesicle stage (arrow). Scale bar, 1 mm. Mean±SEM; * p<0.05.
FIG. 7. Pre-treatment with verteporfin and CCN2 antibodies suppressed fragmentation-induced ovarian growth. A, Pretreatment with verteporfin suppressed fragmentation-induced increases in CCN2, but not AMH, transcript levels. Juvenile mice were injected i.p. with verteporfin for 3 h before retrieving ovaries for fragmentation. At 4 h after incubation, transcript levels for CCN2 and AMH were determined by real-time RT-PCR. n=6-12. […] Ovaries from juvenile mice pre-injected with verteporf in for 3 h were fragmented and incubated for 1 h before grafting into FSH-treated hosts for 5 days followed by determination of graft weights. Numbers in parentheses are number of samples used. C, Follicle dynamics of intact and fragmented ovarian grafts from animals with or without verteporf in (VP) pretreatment. n=3-5. D, Incubation of fragmented ovaries with CCN2 antibodies suppressed ovarian weight increases. Paired ovaries were fragmented into 3 pieces followed by incubation with CCN2 antibodies or non-immune-IgG for 18 h before grafting for 5 days. Mean±SEM; *p<0.05.
Left upper panel: Paired ovaries from day 10 mice were treated with or without JASP (10 μM) for 30 min. before analyses of F- and G-actin content. Left lower panel: Real-time RT-PCR analyses of CCN2 transcript levels after 30 min. exposure to JASP. Right panel: Immunoblotting analyses of CCN2 protein levels after 30 min. treatment with JASP. Upper panel: Immunoblotting analyses. Lower panel: quantitative analyses of densitometric scanning data. Numbers in parentheses are number of samples used. * p<0.05. […]

[3] = test system: F-actin/G-actin; assay: F-actin and G-actin content of ovaries after JASP; format: cell-based; conditions: 10 μM for 30 min., ovaries from day 10 mice
Description: (§1) Left upper panel: Paired ovaries from day 10 mice were treated with or without JASP (10 μM) for 30 min. before analyses of F- and G-actin content. Left lower panel: Real-time RT-PCR analyses of CCN2 transcript levels after 30 min. exposure to JASP. Right panel: Immunoblotting analyses of CCN2 protein levels after 30 min. treatment with JASP. Upper panel: Immunoblotting analyses. Lower panel: quantitative analyses of densitometric scanning data. Numbers in parentheses are number of samples used. * p<0.05. […] Ovaries from day 10 mice were treated with or without different concentrations of JASP for 30 min. before grafting into adult hosts treated daily with FSH. Five days later, graft weights were determined.
Paired ovaries from CD-1 mice at different ages were excised in L-15 medium. One ovary from each animal was cut into 2-4 pieces, whereas the contralateral one remained intact. Ovaries were transferred to culture plate inserts (Millipore, Bedford, Mass.) and cultured in MEMa medium with 3 mg/ml BSA, 0.23 mM sodium pyruvate, 50 ug/ml vitamin C, 30 mIU/ml FSH, 50 mg/L streptomycin sulfate, and 75 mg/L penicillin G. After 30 min. of incubation, media were replaced and incubated for another 30 min. […]
Ratios of F-actin to G-actin in intact and fragmented ovaries were determined by F-actin/G-actin in vivo assay kit (Cytoskeleton, Denver, Colo.). […]

[4] = test system: CCN2; assay: CCN2 transcript and protein levels of ovaries after JASP; format: cell-based; conditions: 30 min. exposure, ovaries from day 10 mice
Description: as §1
Paired ovaries from CD-1 mice at different ages were excised in L-15 medium. One ovary from each animal was cut into 2-4 pieces, whereas the contralateral one remained intact. […]
Proteins from NIH3T3 cells or ovaries of mice at day 10 of age were extracted using M-PER Mammalian Protein Extraction Reagent (Thermo, Rockford, Ill.) containing a protease inhibitor cocktail (Thermo). […] Signals were developed using enhanced chemiluminescence (ECL Kit, GE Healthcare) and quantitated using a densitometer. […]

Row | Compound | IC50 [1] [µM] | weights of ovarian grafts [2] | actin polymerization (F- and G-actin content) [3] | CCN2 expression (transcript and protein) [4]
1 | monoperoxo(picolinato)oxovanadate(V) | 18 |  |  | 
2 | C/C1=C\[C@H](C)C[C@H](C)OC(=O)C[C@H](c2ccc(O)cc2)NC(=O)[C@@H](Cc2c(Br)[nH]c3ccccc23)N(C)C(=O)[C@H](C)NC(=O)[C@@H](C)C1 [JASP, jasplakinolide] |  | increased weights of ovarian grafts | increased actin polymerization | increased
